Results on four molecules are retold here after US5217969A, “Benzoxazine derivatives as inhibitors of leukotrienes” (Imperial Chemical Industries PLC, priority 1990, dated 1993).

Assay [1] concerns the target T1, 5-LO (Homo sapiens, UniProt P09917).
T1 construct: heparinised human blood, prior to challenge with the calcium ionophore A23187; endogenous in cells; host or cells: heparinised human blood (endogenous enzyme of the blood cells)
T1 sequence (P09917 1-674): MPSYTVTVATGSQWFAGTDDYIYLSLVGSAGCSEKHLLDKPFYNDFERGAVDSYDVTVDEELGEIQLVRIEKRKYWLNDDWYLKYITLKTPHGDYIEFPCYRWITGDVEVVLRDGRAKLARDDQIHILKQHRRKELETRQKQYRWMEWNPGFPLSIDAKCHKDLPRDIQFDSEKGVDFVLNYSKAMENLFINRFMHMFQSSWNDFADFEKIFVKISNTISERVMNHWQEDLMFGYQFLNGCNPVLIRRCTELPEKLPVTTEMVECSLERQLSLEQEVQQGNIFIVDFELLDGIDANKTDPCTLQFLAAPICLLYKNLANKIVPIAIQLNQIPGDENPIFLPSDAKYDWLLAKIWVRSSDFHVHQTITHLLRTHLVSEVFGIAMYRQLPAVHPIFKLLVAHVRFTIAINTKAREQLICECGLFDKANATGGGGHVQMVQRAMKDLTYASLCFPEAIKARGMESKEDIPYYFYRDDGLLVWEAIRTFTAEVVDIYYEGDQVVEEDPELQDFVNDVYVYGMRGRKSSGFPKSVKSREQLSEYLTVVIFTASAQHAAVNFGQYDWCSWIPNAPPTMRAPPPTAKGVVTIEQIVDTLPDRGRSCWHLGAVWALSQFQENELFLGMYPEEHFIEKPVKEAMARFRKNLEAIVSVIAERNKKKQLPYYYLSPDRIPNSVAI
Description: test b) heparinised human blood challenged with A23187, LTB4 radioimmunoassay. The class given is cell-based. The method, then:
b) An in vitro assay system involving incubating a test compound with heparinised human blood, prior to challenge with the calcium ionophore A23187 and then indirectly measuring the inhibitory effects on 5-LO by assaying the amount of LTB4 using the specific radioimmunoassays described by Carey and Forder (F. Carey and R. A. Forder, Prostaglandins, Leukotrienes Med., 1986, 22, 57; Prostaglandins, 1984, 28, 666; Brit. J. Pharmacol. 1985, 84, 34P) which involve the use of a protein-LTB4 conjugate produced using the procedure of Young et alia (Prostaglandins, 1983, 26(4), 605-613). The effects of a test compound on the enzyme cyclooxygenase (which is involved in the alternative metabolic pathway for arachidonic acid and gives rise to prostaglandins, thromboxanes and related metabolites) may be measured at the same time using the specific radioimmunoassay for thromboxane B2 (T×B2) described by Carey and Forder (see above). This test provides an indication of the effects of a test compound against 5-LO and also cyclooxygenase in the presence of blood cells and proteins. It permits the selectivity of the inhibitory effect on 5-LO or cyclooxygenase to be assessed.

In assay [2] the target is T2, 5-LO (Rattus norvegicus, UniProt P12527).
T2 construct: liberation of LTB4 induced by zymosan within an air pouch generated within the subcutaneous tissue of the back of male rats; endogenous in cells; host or cells: living male rats; endogenous enzyme of cells in the zymosan-inflamed subcutaneous air pouch
T2 sequence (P12527 1-673): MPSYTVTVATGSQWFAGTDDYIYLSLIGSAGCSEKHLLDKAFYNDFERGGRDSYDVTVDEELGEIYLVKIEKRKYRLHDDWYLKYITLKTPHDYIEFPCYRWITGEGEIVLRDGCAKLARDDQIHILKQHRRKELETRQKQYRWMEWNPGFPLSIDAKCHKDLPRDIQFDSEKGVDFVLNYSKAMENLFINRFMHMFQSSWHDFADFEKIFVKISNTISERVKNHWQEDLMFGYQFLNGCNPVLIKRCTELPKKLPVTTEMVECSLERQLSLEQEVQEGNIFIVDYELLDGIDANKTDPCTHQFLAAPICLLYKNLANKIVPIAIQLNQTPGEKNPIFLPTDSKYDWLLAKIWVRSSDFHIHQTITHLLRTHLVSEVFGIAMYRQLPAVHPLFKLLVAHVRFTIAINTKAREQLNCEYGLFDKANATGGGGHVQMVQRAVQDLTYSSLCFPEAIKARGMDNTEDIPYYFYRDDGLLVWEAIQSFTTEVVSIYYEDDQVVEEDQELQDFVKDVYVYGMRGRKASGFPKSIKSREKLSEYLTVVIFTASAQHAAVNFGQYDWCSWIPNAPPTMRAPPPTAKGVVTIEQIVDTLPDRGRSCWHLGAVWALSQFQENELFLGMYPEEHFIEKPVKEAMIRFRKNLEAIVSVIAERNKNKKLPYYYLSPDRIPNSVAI
Description: test g) liberation of LTB4 induced by zymosan within an air pouch of male rats. The assay is classed as in vivo. Conditions: oral. The method, then:
g) An in vivo system involving measuring the effects of a test compound administered orally against the liberation of LTB4 induced by zymosan within an air pouch generated within the subcutaneous tissue of the back of male rats. The rats are anaesthetised and air pouches are formed by the injection of sterile air (20 ml). A further injection of air (10 ml) is similarly given after 3 days. At 6 days after the initial air injection the test compound is administered (usually orally as the suspension produced when a solution of the test compound in dimethylsulphoxide is added to hydroxypropylmethylcellulose), followed by the intrapouch injection of zymosan (1 ml of a 1% suspension in physiological saline). After 3 hours the rats are killed, the air pouches are lavaged with physiological saline, and the specific radioimmunoassay described above is used to assay LTB4 in the washings. This test provides an indication of inhibitory effects against 5-LO in an inflammatory milieu.

`COC1(c2cc(F)cc(OCc3ccc4c(c3)OCC(=O)N4C)c2)CCOCC1` [Example 1, 4-[5-fluoro-3-(4-methyl-3-oxo-2,3-dihydro-4H-1,4-benzoxazin-7-ylmethoxy)phenyl]-4-methoxytetrahydropyran]: the IC50 (in general, the concentration needed to halve the response being measured) on 5-LO [1] came out at 0.04 µM. Also, the ED50 – broadly, the dose at which the effect has come halfway, by size or by number of responders – at 5-LO [2] is 0.4 mg/kg.

Molecule `COC1(c2cc(F)cc(OCc3ccc4c(c3)OC(C)(C)C(=O)N4C)c2)CCOCC1` [Example 2, 4-[5-fluoro-3-(2,2,4-trimethyl-3-oxo-2,3-dihydro-4H-1,4-benzoxazin-7-ylmethoxy)phenyl]-4-methoxytetrahydropyran] had an IC50 on 5-LO [1] of 0.05 µM. In addition, the ED50 on 5-LO [2] came out at 1.5 mg/kg.

`COC1(c2cc(F)cc(Sc3ccc4c(c3)OCC(=O)N4C)c2)CCOCC1` [Example 5, 4-[5-fluoro-3-(4-methyl-3-oxo-2,3-dihydro-4H-1,4-benzoxazin-7-ylthio)phenyl]-4-methoxytetrahydropyran] registered an IC50 on 5-LO [1] of 0.05 µM. For the same molecule, the ED50 at 5-LO [2] was found to be 0.15 mg/kg.

`COC1(c2cc(F)cc(Sc3ccc4c(c3)OCC(=S)N4C)c2)CCOCC1` [Example 7, 4-[5-fluoro-3-(4-methyl-3-thioxo-2,3-dihydro-4H-1,4-benzoxazin-7-ylthio)phenyl]-4-methoxytetrahydropyran] registered an IC50 on 5-LO [1] of 0.3 µM. Further, on 5-LO [2], the ED50 came to 1.5 mg/kg.
